These results are taken from patent US20250134874A1, “PHARMACEUTICAL FORMULATIONS COMPRISING 3-({[(4R)-7-{METHYL[4-(PROPAN-2-YL)PHENYL]AMINO}-3,4-DIHYDRO-2H-1-BENZOPYRAN-4-YL]METHYL}AMINO)PYRIDINE-4-CARBOXYLIC ACID” (TACHYON THERAPEUTICS, INC., priority 2021, published 2025).

Where two headings read alike, the source gives them in different places.

The series is described as follows: Sink condition: solubility of API in DI water and SGF. The class given is physicochemical. The following applies: for solubility: thermodynamic from solid, read-out: Final Concentration. On the procedure:
• 1. 5 mg of API was placed into a glass vial. • 2. Added 0.2 mL of diluent (DI water and SGF) into the vial, then sonicate and vortex to dissolve the API. • 3. If the solution is not clear after 5 minutes, add additional 0.2 mL of diluent into the vial, then sonicate and vortex to dissolve the API. • 4. Repeat step 4 till all API is dissolved. • 5. Calculate the final concentration of API and the maximum dissolvable dose used in dissolution test.

Take `CC(C)c1ccc(N(C)c2ccc3c(c2)OCC[C@H]3CNc2cnccc2C(=O)O)cc1` [Compound 1, 3-({[(4R)-7-{methyl[4-(propan-2-yl)phenyl]amino}-3,4-dihydro-2H-1-benzopyran-4-yl]methyl}amino)pyridine-4-carboxylic acid]: the “Maximum dissolvable dose used in dissolution test” value (diluent DI water) is 717 mg and the “Maximum dissolvable dose used in dissolution test” value (diluent SGF) came out at 617 mg. For the same compound, the solubility reads like this: (simulated gastric fluid, diluent SGF) not below 3700 µg/mL; (diluent DI water) not below 4300 µg/mL.
